Measured values reported in paper PMC12202533, “Mechanistic Insights and Anti-cancer Activity of 2H-benzo[b][1,4]oxazin-3(4H)-one Linked 1,2,3-Triazoles in Human Cancer Cells” (Frontiers in Pharmacology, 2025).
Like-named read-outs stand apart in the source and are kept apart here.

Key:
A549 = experiment: CCK-8 cell viability assay and IC50 measurement; type: cell-based, human; conditions: Homo sapiens; for viability at 40 µM / inhibition at 40 µM: A549, 40 μM, 48 h; for viability at 40 µM: CCK-8, read-out: Cell viability (100%), 40 μM, 48 h, A549; for inhibition at 40 µM: read-out: inhibition rate
Method: (§1) In order to investigate the anticancer activity of new synthetic 1,4-benzoxazinone-linked 1,2,3-triazole compounds, we chose several cancer cell lines, including A549 (lung), Huh7 (liver), MCF-7 (breast), HCT-116 (colon), and SKOV3 (ovary), and measured cell viability using the CCK-8 assay. Cells were exposed to 40 μM of the compounds for 48 h, and then cell viability was determined. […] In addition, we used the reference drug gefitinib as a positive control and measured its cell viability on different cell lines. […] We used BEAS-2B cells as a normal cell line to determine the toxic effects of these compounds on normal cells. […] Furthermore, we evaluated the IC50 of these compounds in A549.
(§2) Human cancer cell lines A549, Huh7, MCF-7, HCT-116, and SKOV3 were obtained from ATCC. The cells were cultured in DMEM or RPMI 1640 medium supplemented with 10% FBS and 1% penicillin/streptomycin and incubated at 37°C in a CO2-humidified atmosphere.
(§3) Cells were cultured in DMEM or RPMI 1640 medium containing 10% FBS and 1% penicillin/streptomycin at 37°C and 5% CO2. The CCK-8 assay was performed on several human cancer cell lines, including A549, Huh7, MCF-7, HCT-116, and SKOV3, according to the manufacturer’s instructions. Cells were plated at a density of 5 × 10^3 cells per well in a 96-well plate. After 24 h of incubation, cells were treated with 40 μM compounds for 48 h. Cell viability was assessed by adding 10 μL of CCK-8 reagent, dissolved in the cell culture medium, and incubating for 1 h. Absorbance was measured at 450 nm using a microplate reader. IC50 values were determined using a dose-response curve with six concentrations (0, 10, 20, 40, 80, and 160 μM), and IC50 values were calculated using GraphPad Prism software.

HCT-116 = experiment: CCK-8 cell viability assay; type: cell-based; conditions: Homo sapiens, HCT-116, 40 μM, 48 h, read-out: Cell viability (100%), 40 μM, 48 h, HCT-116
Method: as §1, §2, §3

Huh7 = experiment: CCK-8 cell viability assay; type: cell-based; conditions: Homo sapiens, Huh-7, Huh7, 40 μM, 48 h, read-out: Cell viability (100%), 40 μM, 48 h, Huh7
Method: as §1, §2, §3

MCF-7 = experiment: CCK-8 cell viability assay; type: cell-based; conditions: Homo sapiens, MCF7, MCF-7, 40 μM, 48 h, read-out: Cell viability (100%), 40 μM, 48 h, MCF-7
Method: as §1, §2, §3

SKOV3 = experiment: CCK-8 cell viability assay; type: cell-based; conditions: Homo sapiens, SK-OV-3, SKOV3, 40 μM, 48 h, read-out: Cell viability (100%), 40 μM, 48 h, SKOV3
Method: as §1, §2, §3

[1] = CCK-8 cell viability assay, normal cell line; type: cell-based; conditions: human, BEAS-2B cells (normal cell line), BEAS-2B normal cell line, read-out: Cell viability (100%), 40 μM, 48 h, BEAS-2B
Method: as §1, §3

[2] = A549, 48 h, read-out: IC50 48 h
[3] = A549, 72 h, read-out: IC50 72 h

| IC50 (A549; [2]) | IC50 (A549; [3]) | Structure (SMILES) | viability at 40 µM (A549) | viability at 40 µM (HCT-116) | viability at 40 µM (Huh7) | viability at 40 µM (MCF-7) | viability at 40 µM (SKOV3) | viability at 48 h, 40 µM [1] | inhibition at 40 µM (A549) |
| --- | --- | --- | --- | --- | --- | --- | --- | --- | --- |
|  |  | O=C1COc2ccc(NC(=O)c3cccc(-c4cn(Cc5ccc(Br)cc5)nn4)c3)cc2N1 [Compound 13a] | 105 ± 3.6% | 115 ± 4.01% | 109 ± 2.48% | 107 ± 3.39% | 104 ± 2.08% | 110 ± 1.16% |  |
|  |  | Cc1cc(C)cc(Cn2cc(-c3cccc(C(=O)Nc4ccc5c(c4)NC(=O)CO5)c3)nn2)c1 [Compound 13b] | 114.5 ± 1.06% | 124 ± 4.48% | 108 ± 1.9% | 112 ± 2.33% | 115 ± 2.08% | 105.7 ± 0.38% |  |
| > 100 µM | 64 ± 6.77 µM | O=C1COc2ccc(NC(=O)c3cccc(-c4cn(Cc5cc(F)c(F)c(F)c5)nn4)c3)cc2N1 [Compound 13c] | 63 ± 1% | 68.2 ± 3.35% | 110 ± 1.2% | 91.4 ± 2.78% | 88.5 ± 1.16% | 101 ± 1.59% |  |
|  |  | N#Cc1ccc(F)cc1Cn1cc(-c2cccc(C(=O)Nc3ccc4c(c3)NC(=O)CO4)c2)nn1 [Compound 13d] | 133 ± 1.67% | 135 ± 3.97% | 126 ± 1.71% | 137 ± 1.49% | 120 ± 1.47% | 96.6 ± 2.6% |  |
| > 100 µM | 64.7 ± 7.35 µM | O=C1COc2ccc(NC(=O)c3cccc(-c4cn(Cc5c(F)cccc5Cl)nn4)c3)cc2N1 [Compound 13e] | 45.95 ± 0.35% | 60.9 ± 1.95% | 126 ± 1.82% | 120 ± 3.06% | 85.8 ± 4.65% | 108 ± 1.19% | > 50% |
| 55.2 ± 1.56 µM | 53.3 ± 6.64 µM | O=C1COc2ccc(NC(=O)c3cccc(-c4cn(Cc5ccc(F)c(Cl)c5)nn4)c3)cc2N1 [Compound 13f] | 44.5 ± 3.23% | 68 ± 5.4% | 88.4 ± 1.3% | 85.5 ± 2.2% | 83.7 ± 1.74% | 124 ± 3.82% | > 50% |
|  |  | O=C1COc2ccc(NC(=O)c3cccc(-c4cn(Cc5cccc(Cl)c5)nn4)c3)cc2N1 [Compound 13g] | 99.5 ± 3% | 89.8 ± 1.75% | 104 ± 3.8% | 104.5 ± 0.28% | 109 ± 2.06% | 103.1 ± 0.72% |  |
| 51.1 ± 2.54 µM | 49 ± 4.27 µM | O=C1COc2ccc(NC(=O)c3cccc(-c4cn(Cc5cc(Cl)ccc5F)nn4)c3)cc2N1 [Compound 13h] | 44.1 ± 2.78% | 80.4 ± 3% | 105 ± 2.37% | 94.2 ± 2.87% | 89.7 ± 5.2% | 125 ± 1.84% | > 50% |
|  |  | O=C1COc2ccc(NC(=O)c3cccc(-c4cn(Cc5ccc(F)cc5)nn4)c3)cc2N1 [Compound 13i] | 130 ± 1.04% | 142.6 ± 0.97% | 120 ± 2.62% | 124.6 ± 0.87% | 124.2 ± 1.08% | 117 ± 2.34% |  |
| 43.5 ± 5.67 µM | 35.3 ± 5.81 µM | O=C1COc2ccc(NC(=O)c3cccc(-c4cn(Cc5ccccc5F)nn4)c3)cc2N1 [Compound 13j] | 53.6 ± 2.43% | 60.3 ± 1.3% | 97.2 ± 2.59% | 107 ± 2.73% | 92.73 ± 0.81% | 125.8 ± 0.46% |  |
|  |  | O=C1COc2ccc(NC(=O)c3cccc(-c4cn(Cc5cc(Br)cc(Br)c5)nn4)c3)cc2N1 [Compound 13k] | 140.65 ± 0.11% | 152 ± 3.5% | 129 ± 2% | 141 ± 1.94% | 135 ± 2.4% | 112 ± 1.63% |  |
| > 100 µM | 79.2 ± 6.11 µM | O=C1COc2ccc(NC(=O)c3cccc(-c4cn(Cc5ccc(Br)cc5F)nn4)c3)cc2N1 [Compound 13l] | 57 ± 2.02% | 110 ± 5.15% | 119 ± 2.06% | 105 ± 2.42% | 91.6 ± 2.21% | 101.5 ± 0.49% |  |
|  |  | O=C1COc2ccc(NC(=O)c3cccc(-c4cn(Cc5cccc(C(F)(F)F)c5)nn4)c3)cc2N1 [Compound 13m] | 126 ± 1.9% | 144 ± 2.31% | 124 ± 3.41% | 127 ± 1.71% | 126 ± 2.44% | 107.9 ± 0.77% |  |
| 88.6 ± 18 µM | 77 ± 6.21 µM | O=C1COc2ccc(NC(=O)c3cccc(-c4cn(Cc5c(Cl)cccc5Cl)nn4)c3)cc2N1 [Compound 13n] | 55.6 ± 1.02% | 83.1 ± 1.96% | 129.4 ± 0.81% | 122 ± 3.23% | 89.3 ± 1.41% | 104.7 ± 0.69% |  |
|  |  | N#Cc1ccccc1Cn1cc(-c2cccc(C(=O)Nc3ccc4c(c3)NC(=O)CO4)c2)nn1 [Compound 13o] | 64 ± 6.89% | 97.9 ± 1.02% | 104 ± 2.7% | 103 ± 2.66% | 98.4 ± 2.58% | 109 ± 1.51% |  |
|  |  | O=C1COc2ccc(NC(=O)c3cccc(-c4cn(Cc5ccc(C(F)(F)F)cc5)nn4)c3)cc2N1 [Compound 13p] | 94.7 ± 6.71% | 120 ± 2.54% | 119 ± 1.7% | 113 ± 1.67% | 104 ± 1.06% | 102 ± 4.05% |  |
| 29.4 ± 3.49 µM | 34.9 ± 5.25 µM | O=C1COc2ccc(NC(=O)c3cccc(-c4cn(Cc5ccccc5Br)nn4)c3)cc2N1 [Compound 13q] | 29.3 ± 1.12% | 77.1 ± 2.31% | 123 ± 1.89% | 97.9 ± 2.13% | 89.5 ± 3.23% | 114.9 ± 0.85% | > 50% |
|  |  | O=C1COc2ccc(NC(=O)c3cccc(-c4cn(Cc5cccc(F)c5)nn4)c3)cc2N1 [Compound 13r] | 70 ± 2.73% | 74.9 ± 3.73% | 131 ± 2.34% | 122 ± 2.48% | 115.2 ± 0.67% | 96.3 ± 1.01% |  |
|  |  | O=C1COc2ccc(NC(=O)c3cccc(-c4cn(Cc5ccc(I)cc5)nn4)c3)cc2N1 [Compound 13s] | 128.8 ± 1.19% | 150.6 ± 1.11% | 137 ± 1.61% | 127 ± 3.34% | 118 ± 1.64% | 94.7 ± 1.56% |  |
|  |  | O=C1COc2ccc(NC(=O)c3cccc(-c4cn(Cc5ccc(F)cc5Cl)nn4)c3)cc2N1 [Compound 13t] | 96.6 ± 2.07% | 114 ± 1.76% | 101 ± 3.53% | 97.9 ± 2.53% | 97.2 ± 1.54% | 103 ± 2.67% |  |
|  |  | O=C1COc2ccc(NC(=O)c3cccc(-c4cn(-c5ccc(C(F)(F)F)cc5)nn4)c3)cc2N1 [Compound 14a] | 88.4 ± 7.15% | 110 ± 5.19% | 114 ± 1.46% | 101 ± 3.09% | 103 ± 2.87% | 111.6 ± 0.81% |  |
| 38.7 ± 14.9 µM | 34.8 ± 1.96 µM | O=C1COc2ccc(NC(=O)c3cccc(-c4cn(-c5cccc(Cl)c5)nn4)c3)cc2N1 [Compound 14d] | 29.01 ± 0.13% | 134 ± 3.97% | 141.3 ± 1.17% | 120 ± 2.54% | 90.5 ± 3.81% | 118 ± 2.43% | > 50% |
| 29.1 ± 1.15 µM | 27.8 ± 0.96 µM | O=C1COc2ccc(NC(=O)c3cccc(-c4cn(-c5ccccc5Cl)nn4)c3)cc2N1 [Compound 14e] | 46.5 ± 2.68% | 118 ± 5.23% | 134.1 ± 0.79% | 127 ± 1.89% | 86.5 ± 4.84% | 97.5 ± 2.69% | > 50% |
|  |  | O=C1COc2ccc(NC(=O)c3cccc(-c4cn(-c5ccc(Br)cc5F)nn4)c3)cc2N1 [Compound 14f] | 39.6 ± 1.77% | 80.62 ± 0.6% | 71.4 ± 1.66% | 74.2 ± 1.07% | 79.8 ± 2.53% | 90.98 ± 0.38% | > 50% |
